Test results reported in ChEMBL document CHEMBL1201862, “PubChem BioAssay data set” (2004).
“And” between values parts separate entries of the source, which are not always exact repeats. Equal values may be shown once. The source made the active and inactive calls.

Tests used:
[1] = molecular target: Peroxisome proliferator-activated receptor gamma/Nuclear receptor coactivator 1 (Homo sapiens, UniProt P37231); assay: TR-FRET dose response biochemical High Throughput Screening assay for agonists of the steroid receptor coactivator 1 (SRC-1) recruitment by the peroxisome proliferator-activated receptor gamma (PPAR gamma): non-selective agonists. [Related pubchem assays (depositor defined):AID1300, AID1808, AID504735, AID631]; format: protein assay
[2] = molecular target: Peroxisome proliferator-activated receptor gamma/Nuclear receptor coactivator 2 (Homo sapiens, UniProt P37231); assay: TR-FRET dose response biochemical High Throughput Screening assay for agonists of the steroid receptor coactivator 2 (SRC-2) recruitment by the peroxisome proliferator-activated receptor gamma (PPAR gamma): non-selective agonists. [Related pubchem assays: 1297, 1032 ]; format: functional
[3] = molecular target: Peroxisome proliferator-activated receptor gamma/Nuclear receptor coactivator 3 (Homo sapiens, UniProt P37231); assay: TR-FRET dose response biochemical High Throughput Screening assay for agonists of the steroid receptor coactivator 3 (SRC-3) recruitment by the peroxisome proliferator-activated receptor gamma (PPAR gamma): non-selective agonists. [Related pubchem assays: 1301 (Confirmation screen.), 1048 (Primary screen.)]; format: functional
[4] = molecular target: Peroxisome proliferator-activated receptor gamma/Nuclear receptor corepressor 2 (Homo sapiens, UniProt P37231+Q9Y618); format: functional
Chain of Peroxisome proliferator-activated receptor gamma/Nuclear receptor corepressor 2 (P37231 whole entry): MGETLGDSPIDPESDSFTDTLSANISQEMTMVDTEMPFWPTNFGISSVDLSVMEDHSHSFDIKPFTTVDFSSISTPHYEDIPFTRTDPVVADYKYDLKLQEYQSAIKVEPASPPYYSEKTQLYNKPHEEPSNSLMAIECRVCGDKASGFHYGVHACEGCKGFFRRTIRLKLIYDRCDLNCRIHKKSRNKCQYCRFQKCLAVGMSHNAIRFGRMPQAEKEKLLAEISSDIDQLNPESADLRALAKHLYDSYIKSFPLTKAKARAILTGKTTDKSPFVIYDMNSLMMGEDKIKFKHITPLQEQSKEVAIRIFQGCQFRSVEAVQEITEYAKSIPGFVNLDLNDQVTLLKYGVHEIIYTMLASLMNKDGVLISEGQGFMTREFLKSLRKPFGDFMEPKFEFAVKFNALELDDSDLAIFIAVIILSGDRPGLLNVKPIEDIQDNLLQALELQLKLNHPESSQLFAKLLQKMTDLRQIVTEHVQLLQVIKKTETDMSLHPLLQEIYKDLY
Chain of Peroxisome proliferator-activated receptor gamma/Nuclear receptor corepressor 2 (Q9Y618 whole entry): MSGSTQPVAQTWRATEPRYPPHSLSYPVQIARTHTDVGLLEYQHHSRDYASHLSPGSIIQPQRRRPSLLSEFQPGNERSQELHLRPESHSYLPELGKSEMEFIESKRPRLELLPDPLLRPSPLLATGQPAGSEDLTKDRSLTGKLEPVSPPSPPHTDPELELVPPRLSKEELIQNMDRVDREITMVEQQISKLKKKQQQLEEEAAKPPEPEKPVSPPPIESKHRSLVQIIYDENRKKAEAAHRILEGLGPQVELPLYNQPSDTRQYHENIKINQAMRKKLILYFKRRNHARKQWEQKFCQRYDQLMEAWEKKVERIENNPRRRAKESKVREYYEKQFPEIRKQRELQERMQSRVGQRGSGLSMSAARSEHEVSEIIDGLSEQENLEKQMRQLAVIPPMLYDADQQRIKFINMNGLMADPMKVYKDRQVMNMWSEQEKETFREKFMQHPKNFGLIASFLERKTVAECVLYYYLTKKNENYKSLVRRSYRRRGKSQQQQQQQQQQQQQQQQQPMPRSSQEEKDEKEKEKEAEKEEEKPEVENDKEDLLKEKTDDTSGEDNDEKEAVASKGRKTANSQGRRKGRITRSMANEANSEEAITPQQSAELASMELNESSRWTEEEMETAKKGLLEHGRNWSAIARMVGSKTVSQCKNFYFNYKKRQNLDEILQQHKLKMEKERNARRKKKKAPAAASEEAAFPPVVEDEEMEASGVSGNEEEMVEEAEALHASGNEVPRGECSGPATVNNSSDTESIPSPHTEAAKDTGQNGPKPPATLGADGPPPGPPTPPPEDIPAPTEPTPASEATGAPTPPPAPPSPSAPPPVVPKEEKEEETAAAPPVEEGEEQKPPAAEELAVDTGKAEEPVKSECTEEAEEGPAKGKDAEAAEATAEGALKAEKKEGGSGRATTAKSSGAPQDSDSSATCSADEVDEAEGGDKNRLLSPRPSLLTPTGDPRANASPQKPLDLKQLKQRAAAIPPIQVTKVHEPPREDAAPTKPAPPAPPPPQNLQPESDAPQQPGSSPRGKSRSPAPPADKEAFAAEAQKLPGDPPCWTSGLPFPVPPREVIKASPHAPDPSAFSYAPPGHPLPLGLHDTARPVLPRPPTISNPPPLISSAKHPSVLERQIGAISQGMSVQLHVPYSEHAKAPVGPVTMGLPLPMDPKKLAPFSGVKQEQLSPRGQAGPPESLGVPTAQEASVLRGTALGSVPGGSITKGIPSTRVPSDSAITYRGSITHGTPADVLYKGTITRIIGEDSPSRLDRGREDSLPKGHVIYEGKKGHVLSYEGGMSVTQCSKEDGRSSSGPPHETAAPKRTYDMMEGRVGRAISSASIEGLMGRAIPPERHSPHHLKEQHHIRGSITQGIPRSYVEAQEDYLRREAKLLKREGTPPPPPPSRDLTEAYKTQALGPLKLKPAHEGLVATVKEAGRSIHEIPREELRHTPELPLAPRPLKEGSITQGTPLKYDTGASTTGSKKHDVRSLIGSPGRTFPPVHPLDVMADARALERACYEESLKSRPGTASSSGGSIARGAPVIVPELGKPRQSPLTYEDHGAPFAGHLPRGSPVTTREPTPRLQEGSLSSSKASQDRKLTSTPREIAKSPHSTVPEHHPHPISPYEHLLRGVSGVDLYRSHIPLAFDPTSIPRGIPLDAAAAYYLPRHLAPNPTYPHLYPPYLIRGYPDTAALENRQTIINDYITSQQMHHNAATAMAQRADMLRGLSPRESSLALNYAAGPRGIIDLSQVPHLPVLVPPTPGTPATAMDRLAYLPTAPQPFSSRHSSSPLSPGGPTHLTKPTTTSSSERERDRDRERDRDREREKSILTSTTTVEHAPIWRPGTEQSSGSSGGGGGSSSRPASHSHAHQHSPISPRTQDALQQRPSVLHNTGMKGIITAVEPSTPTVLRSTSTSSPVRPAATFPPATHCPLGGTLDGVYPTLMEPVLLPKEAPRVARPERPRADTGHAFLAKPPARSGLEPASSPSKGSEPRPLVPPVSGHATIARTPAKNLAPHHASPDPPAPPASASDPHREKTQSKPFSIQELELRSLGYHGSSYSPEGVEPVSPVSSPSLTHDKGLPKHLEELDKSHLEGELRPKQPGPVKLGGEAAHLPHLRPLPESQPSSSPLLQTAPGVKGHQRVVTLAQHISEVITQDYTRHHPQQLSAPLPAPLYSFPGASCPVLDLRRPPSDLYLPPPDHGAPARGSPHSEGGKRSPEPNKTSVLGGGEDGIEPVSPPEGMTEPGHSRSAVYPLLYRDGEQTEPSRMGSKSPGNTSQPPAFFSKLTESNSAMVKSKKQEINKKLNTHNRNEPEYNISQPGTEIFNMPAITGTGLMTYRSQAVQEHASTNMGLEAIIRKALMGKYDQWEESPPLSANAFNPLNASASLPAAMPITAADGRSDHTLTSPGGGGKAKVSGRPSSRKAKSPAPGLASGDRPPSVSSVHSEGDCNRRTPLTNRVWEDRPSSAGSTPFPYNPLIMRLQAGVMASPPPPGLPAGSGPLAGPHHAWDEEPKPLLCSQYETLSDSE

[5] = molecular target: Photoreceptor-specific nuclear receptor (Homo sapiens, UniProt Q9Y5X4); format: functional;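 also: potency for compounds that break the NR2E3 corepressor complex and count as activators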
Chain of Photoreceptor-specific nuclear receptor (Q9Y5X4 whole entry): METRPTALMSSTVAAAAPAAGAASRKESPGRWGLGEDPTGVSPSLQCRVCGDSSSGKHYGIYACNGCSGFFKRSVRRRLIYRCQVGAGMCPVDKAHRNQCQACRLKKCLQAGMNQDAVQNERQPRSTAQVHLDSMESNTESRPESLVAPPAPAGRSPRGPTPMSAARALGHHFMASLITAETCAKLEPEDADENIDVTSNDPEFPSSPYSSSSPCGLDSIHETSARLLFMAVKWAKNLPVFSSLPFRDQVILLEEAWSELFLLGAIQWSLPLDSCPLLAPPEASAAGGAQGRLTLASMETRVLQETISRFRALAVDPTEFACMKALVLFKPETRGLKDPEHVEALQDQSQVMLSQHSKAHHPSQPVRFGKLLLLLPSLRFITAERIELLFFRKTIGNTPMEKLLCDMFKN

[6] = molecular target: Protein Tat (Human immunodeficiency virus type 1 group M subtype B (isolate HXB2)(HIV-1), UniProt P04608); format: functional;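 also: tat binding to TAR RNA read out by fluorescence polarization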
Chain of Protein Tat (P04608 whole entry): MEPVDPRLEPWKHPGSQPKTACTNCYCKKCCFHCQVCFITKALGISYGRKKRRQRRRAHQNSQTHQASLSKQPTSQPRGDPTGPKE

[7] = Luminescence Cell-Based Dose Response HTS to Identify Activators of Luciferase Translation or Activity in H4 […] Cells. [Related pubchem assays: 1829 (Project Summary), 1814 (Primary HTS)]; format: functional
[8] = viability loss of HPDE-C7K cells – cell-based, fluorescence, HTS, primary screen (AID 431); format: functional; conditions: Homo sapiens
[9] = NIH3T3 cell viability loss – ATP luminescence, mouse fibroblasts, counter-screen, dose response (AID 2010); format: functional, cell-based;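 also: cells exposed to compound for about 90 hours before reading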
[10] = molecular target: Fructose-bisphosphate aldolase (Mycobacterium tuberculosis, UniProt P9WQA3); assay: Fluorescence-based biochemical high throughput dose response assay for inhibitors of the fructose-bisphosphate aldolase (FBA) of M. tuberculosis.; format: functional
[11] = Trypanosoma cruzi growth suppression in host cells – NIH3T3 host cells, beta-gal luminescence, confirmation (AID 2044); format: functional, cell-based;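 also: intracellular parasites grown in NIH/3T3 mouse fibroblasts as host cells; luminescent beta-galactosidase reporter signal from transgenic T. cruzi replicating inside host cells; inhibitors lower the luminescence signal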
[12] = Luminescence Cell-Based Dose Confirmation HTS to Identify Activators of 5'UTR Stem-Loop Driven Alpha-Synuclein mRNA Translation in H4 Neuroglioblastoma Cells. [Related pubchem assays: 1829 (Project Summary), 1814 (Primary HTS)]; format: functional
[13] = tested on: H4; assay: Luminescence Cell-Based Dose Response HTS to Identify Activators of 5'UTR Stem-Loop Driven Prion Protein mRNA Translation in H4 Neuroglioblastoma Cells. [Related pubchem assays: 1829 (Project Summary), 1814 (Primary HTS)]; format: functional; conditions: Homo sapiens
[14] = HPDE-C7 pancreatic duct cell viability loss – fluorescence, HTS (AID 430); format: functional, cell-based; conditions: Homo sapiens
[15] = molecular target: T1, Estrogen receptor beta (Homo sapiens, UniProt Q92731);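 also: recombinant ER-beta bound to coactivator SRC1 peptide in presence of estradiol agonist; inhibitors block coactivator peptide binding and lower the FRET signal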
T1 sequence (Q92731 whole entry): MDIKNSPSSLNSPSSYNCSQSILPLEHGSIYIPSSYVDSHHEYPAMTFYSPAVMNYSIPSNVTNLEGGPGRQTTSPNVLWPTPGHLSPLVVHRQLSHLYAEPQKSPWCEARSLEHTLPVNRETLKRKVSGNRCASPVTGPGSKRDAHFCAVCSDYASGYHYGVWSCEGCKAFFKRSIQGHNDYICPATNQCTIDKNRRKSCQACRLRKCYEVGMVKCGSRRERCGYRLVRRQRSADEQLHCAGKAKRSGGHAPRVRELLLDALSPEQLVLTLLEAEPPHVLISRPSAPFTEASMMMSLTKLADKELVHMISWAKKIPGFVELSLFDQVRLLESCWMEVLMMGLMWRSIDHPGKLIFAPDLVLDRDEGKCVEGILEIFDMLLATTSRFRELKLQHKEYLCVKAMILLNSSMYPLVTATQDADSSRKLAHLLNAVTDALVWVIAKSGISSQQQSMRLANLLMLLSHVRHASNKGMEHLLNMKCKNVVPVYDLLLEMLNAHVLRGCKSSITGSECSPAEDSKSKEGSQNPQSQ

[16] = molecular target: T1, Estrogen receptor beta; assay: blockers of SRC-3 recruitment to ERβ – biochemical, ELISA, streptavidin-HRP readout, orthogonal assay, confirmation (AID 1060)
[17] = molecular target: Lysosomal acid glucosylceramidase (Homo sapiens, UniProt P04062); assay: Dose response cell-based high throughput screening assay to identify enhancers of beta-glucosidase activity. [Related pubchem assays: 784 ]; format: functional
Chain of Lysosomal acid glucosylceramidase (P04062 whole entry): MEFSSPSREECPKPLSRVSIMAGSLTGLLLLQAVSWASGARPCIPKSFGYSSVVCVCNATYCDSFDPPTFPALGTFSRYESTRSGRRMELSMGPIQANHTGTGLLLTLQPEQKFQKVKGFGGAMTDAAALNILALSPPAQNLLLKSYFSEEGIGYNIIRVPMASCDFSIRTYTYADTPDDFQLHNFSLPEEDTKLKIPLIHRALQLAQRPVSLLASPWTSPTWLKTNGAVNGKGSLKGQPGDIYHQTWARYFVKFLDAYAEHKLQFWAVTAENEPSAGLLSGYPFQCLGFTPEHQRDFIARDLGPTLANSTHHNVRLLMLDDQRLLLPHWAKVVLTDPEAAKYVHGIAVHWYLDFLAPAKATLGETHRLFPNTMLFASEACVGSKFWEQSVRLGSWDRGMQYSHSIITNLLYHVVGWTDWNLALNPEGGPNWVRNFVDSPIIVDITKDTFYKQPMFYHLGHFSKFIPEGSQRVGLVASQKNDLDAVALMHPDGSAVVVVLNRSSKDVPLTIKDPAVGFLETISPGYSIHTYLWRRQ

[18] = HEK-293T viability loss after treatment – luminescence, T-cell screen hits, cytotoxicity control for TCR NF-kB inhibitor project, dose response (AID 489026); format: functional, cell-based;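 also: cells exposed to compound about 14 hours before the viability readout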
[19] = tested on: BJ; assay: BJ-TERT fibroblast viability loss – cell-based, RAS-independent, luminescence, dose response (AID 1933); format: functional, Homo sapiens; conditions: Homo sapiens, BJ
[20] = tested on: BJ; assay: cells; format: functional, cell-based, Homo sapiens; conditions: Homo sapiens, BJ
[21] = molecular target: Luciferin 4-monooxygenase (Photinus pyralis, UniProt P08659); assay: Counter Screen for Luciferase-based Assay Positives. [Related pubchem assays: 620, 618, 411 ]
[22] = tested on: HT-1080; assay: HT1080 cell viability loss – fluorescence readout (AID 620); format: functional, cell-based; conditions: Homo sapiens
[23] = tested on: BJ; assay: BJ-TERT-LT-ST fibroblast viability loss – cell-based, RAS-independent, luminescence, dose response (AID 1935); format: functional, Homo sapiens; conditions: Homo sapiens, BJ;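 also: BJ fibroblasts immortalized with TERT plus LT and ST oncogenes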
[24] = DRD fibroblast viability loss – cell-based, non-viral oncogenic, luminescence, dose response (AID 1934); format: functional; conditions: Homo sapiens
[25] = Luminescence Cell-Based Dose Confirmation to Identify Activators of 5'UTR Stem-Loop Driven Alpha-Synuclein mRNA Translation in H4 Neuroglioblastoma Cells. [Related pubchem assays: 1829 (Project Summary), 1814 (Primary HTS)]; format: functional
[26] = Luminescence Cell-Based Dose Response to Identify Activators of Luciferase Translation or Activity in H4-C Neuroglioblastoma Cells. [Related pubchem assays: 1829 (Project Summary), 1814 (Primary HTS)]; format: functional
[27] = Luminescence Cell-Based Dose Response to Identify Activators of 5'UTR Stem-Loop Driven Prion Protein mRNA Translation in H4-C Neuroglioblastoma Cells. [Related pubchem assays: 1829 (Project Summary), 1814 (Primary HTS)]; format: functional
[28] = molecular target: DNA dC->dU-editing enzyme APOBEC-3G (Homo sapiens, UniProt Q9HC16); format: functional;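 also: Dose-response counterscreen measuring inhibition of APOBEC3G DNA deaminase activity, run while confirming APOBEC3A inhibitors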
Chain of DNA dC->dU-editing enzyme APOBEC-3G (Q9HC16 whole entry): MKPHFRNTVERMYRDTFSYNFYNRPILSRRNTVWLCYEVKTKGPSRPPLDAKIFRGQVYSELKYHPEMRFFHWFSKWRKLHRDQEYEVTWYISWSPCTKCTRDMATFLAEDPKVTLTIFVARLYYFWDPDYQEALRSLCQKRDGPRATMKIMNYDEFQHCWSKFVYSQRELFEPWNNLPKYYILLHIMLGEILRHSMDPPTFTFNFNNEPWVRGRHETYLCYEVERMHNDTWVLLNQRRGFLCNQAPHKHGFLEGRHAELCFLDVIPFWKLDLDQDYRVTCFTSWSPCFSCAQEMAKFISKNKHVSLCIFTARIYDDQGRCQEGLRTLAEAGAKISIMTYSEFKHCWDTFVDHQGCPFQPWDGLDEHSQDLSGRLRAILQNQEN

[29] = molecular target: DNA dC->dU-editing enzyme APOBEC-3A (Homo sapiens, UniProt P31941); assay: Dose Response confirmation of small molecule APOBEC3A DNA Deaminase Inhibitors via a fluorescence-based single-stranded DNA deaminase assay. [Related pubchem assays (depositor defined):AID493011, AID493024]; format: functional
[30] = molecular target: Protein-tyrosine kinase 2-beta (Homo sapiens, UniProt Q14289);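 also: potency of inhibitors of PYK2 kinase phosphorylation of poly-GT substrate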
[31] = molecular target: Cytochrome P450 2C19 (Homo sapiens, UniProt P33261); assay: Cytochrome panel assay with activity outcomes. Panel member name: p450-cyp2c19 Compounds with AC50 equal or less than 10 uM are considered active; format: functional; conditions: read-out: AC50
[32] = molecular target: Cytochrome P450 2C9 (Homo sapiens, UniProt P11712)
[33] = molecular target: Prothrombin (Homo sapiens, UniProt P00734); assay: Thrombin 1536 HTS Dose Response Confirmation. [Related pubchem assays: 1046 (Thrombin 1536 HTS; hits were confirmed in this assay)]; format: functional
[34] = molecular target: T2, Neuropeptide Y receptor type 2 (Homo sapiens, UniProt P49146); assay: Fluorescence-based cell-based high-throughput dose response assay for agonists of NPY-Y2. [Related pubchem assays: 1703 (Screening assay (CNGC inhibitors).), 1359 (Screening assay (NPY-Y2 potentiators or agonists).), 1304 (Screening assay (NPY-Y1 potentiators or agonists).), 1710 (Screening assay (NPY-Y2 agonists).), 1791 (Summary AID.)]; format: functional
T2 sequence (P49146 whole entry): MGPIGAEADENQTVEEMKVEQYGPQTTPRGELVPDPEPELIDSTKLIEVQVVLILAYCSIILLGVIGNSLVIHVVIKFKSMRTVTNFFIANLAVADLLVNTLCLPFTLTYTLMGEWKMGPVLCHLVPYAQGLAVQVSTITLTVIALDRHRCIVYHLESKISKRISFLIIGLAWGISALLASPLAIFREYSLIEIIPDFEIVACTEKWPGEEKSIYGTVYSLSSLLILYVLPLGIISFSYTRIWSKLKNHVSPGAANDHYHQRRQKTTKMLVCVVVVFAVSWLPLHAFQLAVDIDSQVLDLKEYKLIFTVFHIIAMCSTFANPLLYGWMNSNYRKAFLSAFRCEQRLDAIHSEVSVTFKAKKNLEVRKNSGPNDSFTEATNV

[35] = tested on: Streptococcus sp. 'group A'; assay: Streptococcus pyogenes SK(-)GAS viability under kanamycin – luminescence, BacTiterGlo, confirmation, counter-screen for streptokinase expression inhibitor project, dose response (AID 1900); format: functional, organism-based
[36] = molecular target: T3, Streptokinase A (Streptococcus pyogenes serotype M1, UniProt P10520); assay: viability-normalized secreted streptokinase activity reduction – plasminogen activation absorbance, OD405, dose response (AID 1914); format: functional, Streptococcus pyogenes M1 GAS;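 also: secreted streptokinase activity via plasminogen activation per viability signal from cell pellet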
T3 sequence (P10520 whole entry): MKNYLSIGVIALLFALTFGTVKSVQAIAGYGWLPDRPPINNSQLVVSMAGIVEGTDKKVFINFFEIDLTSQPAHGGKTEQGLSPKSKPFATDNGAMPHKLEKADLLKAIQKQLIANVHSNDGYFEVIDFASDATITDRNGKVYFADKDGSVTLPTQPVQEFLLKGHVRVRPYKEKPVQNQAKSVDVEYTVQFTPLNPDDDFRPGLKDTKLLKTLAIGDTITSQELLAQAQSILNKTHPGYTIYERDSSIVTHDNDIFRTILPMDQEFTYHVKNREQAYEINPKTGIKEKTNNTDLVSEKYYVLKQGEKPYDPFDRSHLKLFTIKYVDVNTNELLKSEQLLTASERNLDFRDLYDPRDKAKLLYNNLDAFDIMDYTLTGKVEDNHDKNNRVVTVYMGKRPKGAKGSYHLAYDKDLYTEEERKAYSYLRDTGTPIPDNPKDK

[37] = tested on: HEK293; assay: Fluorescence-based counterscreen for potentiators or agonists of NPY-Y2: cell-based high-throughput dose response assay to identify inhibitors of cyclic nucleotide gated ion channel (CNGC) activity. In this assay, the parental HEK293 cell line transfected with a cyclic-nucleotide gated ion channel (CNGC)-based cAMP sensor is used to measure inhibition of isoproterenol-induced CNGC activity by test compound.; format: functional; conditions: Homo sapiens;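 also: stimulus is 1 µM isoproterenol at EC100 plus PDE inhibitor Ro 20-1724 at 25 µM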
[38] = tested on: INS1; assay: INS-1E survival protection against cytokine death – cell-based, luminescence, retest, dose response (AID 449756); format: functional; conditions: Rattus norvegicus;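 also: cell death triggered by IL-1 beta plus TNF-alpha plus IFN-gamma mixture; protective hits raise ATP signal compared with cytokine alone wells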
[39] = tested on: Streptococcus; assay: GAS UMAA2166 growth inhibition – luminescence, BacTiterGlo, counter-screen for streptokinase expression inhibitor project, dose response (AID 1915); format: functional, organism-based;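 also: potency for reduction of bacterial viability or growth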
[40] = molecular target: T4, Neuropeptide Y receptor type 1 (Homo sapiens, UniProt P25929); assay: Fluorescence-based counterscreen for agonists of NPY-Y2: cell-based high-throughput dose response assay for agonists of NPY-Y1.; format: functional
T4 sequence (P25929 whole entry): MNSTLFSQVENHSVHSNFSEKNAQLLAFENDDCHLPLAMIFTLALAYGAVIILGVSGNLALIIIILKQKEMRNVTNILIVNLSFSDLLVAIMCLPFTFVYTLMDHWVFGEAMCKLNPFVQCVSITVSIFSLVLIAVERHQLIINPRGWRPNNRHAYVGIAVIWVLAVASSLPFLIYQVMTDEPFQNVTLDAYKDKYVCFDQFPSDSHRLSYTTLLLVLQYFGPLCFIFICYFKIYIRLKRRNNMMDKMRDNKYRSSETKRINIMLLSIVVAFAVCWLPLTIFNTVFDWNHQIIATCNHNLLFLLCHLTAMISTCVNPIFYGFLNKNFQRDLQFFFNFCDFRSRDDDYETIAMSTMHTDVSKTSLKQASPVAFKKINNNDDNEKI

O=C(O)CCc1ccc(-c2ccc(Br)cc2)o1
EC50 [1]: > 79.4 µM (inactive)
EC50 [2]: 65.4 µM (not active)
EC50 [3]: > 79.4 µM (not active)
IC50 [4]: 4.4 µM (active)
IC50 [5]: > 39.8 µM (not active)
IC50 [6]: > 100 µM (active)

Nc1c(C(=O)NCc2ccco2)c2nc3ccccc3nc2n1CCN1CCCCC1
EC50 [7]: 26.9 µM (active)
EC50 [8]: 14.4 µM (active)
EC50 [9]: 9.81 µM (active)
IC50 [10]: 0.776 µM (active)
EC50 [11]: 2.43 µM (active)
EC50 [12]: > 120 µM (not active)
EC50 [13]: > 120 µM (not active)
EC50 [14]: 12.6 µM (active)

Cc1ccccc1Nc1nnc(SCC(=O)NCc2ccco2)s1
IC50 [15]: 10.3 µM (active)
IC50 [16]: 3.24 µM (not active) and > 50 µM (not active)

CC(C)OC(=O)CSc1nnc(-c2cccnc2)n1N
EC50 [17]: > 10 µM (not active)

CCCC(=O)C1=C(Nc2ccc(OC)cc2OC)CC(C)(C)CC1=O
IC50 [18]: > 80 µM (inactive)
EC50 [19]: 13.1 µM (active)
EC50 [20]: 29.9 µM (active)
EC50 [21]: 0.55 µM (active)
EC50 [22]: 17.3 µM (active)
EC50 [23]: 4.43 µM (active)
EC50 [24]: 4.69 µM (active)

O=C(Nc1ccc(CN2CCOCC2)cc1)c1ccc(Cl)cc1
EC50 [25]: > 12 µM (not active)
EC50 [7]: 4.65 µM (active)
EC50 [26]: 0.951 µM (active)
EC50 [27]: 0.685 µM (active)
EC50 [12]: < 0.1 µM (active)
EC50 [13]: 16.1 µM (active)

COCCCn1c(Cc2csc(Nc3cccc(Cl)c3)n2)nnc1SCC(=O)OC1CCCCC1
IC50 [28]: 38.8 µM (active)
IC50 [15]: < 1.56 µM (active)
IC50 [16]: 43.4 nM (not active)
IC50 [29]: 20.8 µM (active)

COc1cccc(CNC(=O)COC(=O)/C(C#N)=C/c2ccc(N(C)C)cc2)c1
IC50 [4]: 29.4 µM (not active)
IC50 [5]: > 39.8 µM (not active)

CCOC(=O)c1ccc(NC(=O)CSC2=NC(=O)C(CC)C(=O)N2)cc1 (configuration not stated)
EC50 [17]: > 10 µM (not active)

Cc1ccc(C(=O)COC(=O)c2ccc3c(c2)C(=O)N(c2cccc4ncccc24)C3=O)cc1C
IC50 [30]: 7.66 µM (active)
AC50 [31]: 15.8 µM (inconclusive)
AC50 [32]: 0.708 µM (inconclusive)

Cc1ccc(-n2c(C)cc(C(=O)CSc3nncs3)c2C)cc1
IC50 [33]: > 50 µM (not active)
EC50 [25]: 0.346 µM (active)
EC50 [26]: 0.34 µM (active)
EC50 [27]: 0.332 µM (active)
EC50 [13]: < 0.1 µM (active)

O=C(/C(=N/Nc1cccc([N+](=O)[O-])c1)C(=O)C(F)(F)F)c1ccc(Br)cc1
EC50 [34]: 12.1 µM (not active)
EC50 [35]: 7.63 µM (active)
EC50 [36]: 6.23 µM (active)
EC50 [37]: 12.2 µM (not active)
AC50 [38]: 6.21 µM (active)
EC50 [39]: 5.97 µM (active)
EC50 [40]: 10.6 µM (not active)
